Measured values taken from ChEMBL document CHEMBL4257541, “Development of subnanomolar-affinity serotonin 5-HT4 receptor ligands based on quinoline structures” (Medchemcomm, 2018).

What follows are compounds tested against 5-hydroxytryptamine receptor 4 (Cavia porcellus, UniProt O70528) (assay: Displacement of [3H]-GR113808 from 5-HT4R in Dunkin-Hartley guinea pig straitum nuclear membranes after 30 mins by filter binding method).
Sequence of 5-hydroxytryptamine receptor 4 (O70528 whole entry): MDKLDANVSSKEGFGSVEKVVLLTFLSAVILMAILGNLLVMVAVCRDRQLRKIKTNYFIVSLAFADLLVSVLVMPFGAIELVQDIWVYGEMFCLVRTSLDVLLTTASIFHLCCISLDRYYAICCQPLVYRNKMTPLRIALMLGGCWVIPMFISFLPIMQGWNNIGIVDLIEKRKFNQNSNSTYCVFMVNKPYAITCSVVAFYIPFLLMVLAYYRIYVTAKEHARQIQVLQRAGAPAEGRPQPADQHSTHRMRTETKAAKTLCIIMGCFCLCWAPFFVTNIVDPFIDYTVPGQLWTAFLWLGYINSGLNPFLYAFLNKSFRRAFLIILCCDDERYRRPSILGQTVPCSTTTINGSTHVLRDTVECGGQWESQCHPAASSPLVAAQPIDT
For `CCCCN1CCC(COC(=O)c2cc(Cl)nc3ccccc23)CC1`, the Ki was 0.86 nM. With `COc1cc(C(=O)OCCN2CCC(NC(=O)OC(C)(C)C)CC2)c2ccccc2n1` the Ki was 304 nM. `CCCCN1CCC(CNC(=O)c2cc(OC)nc3ccccc23)CC1` was tested, and the Ki was > 1000 nM. Work on `CCCCN1CCC(COC(=O)c2ccnc3ccccc23)CC1` yielded a Ki of 1.5 nM. With `COc1cc(C(=O)OCCN2CCCCC2)c2ccccc2n1` the Ki was 15 nM. In the case of `O=C(NCCN1CCCCC1)c1cc(Cl)c2ccccc2n1`, the Ki is reported as > 1000 nM. Compound `CCCCN1CCC(CNC(=O)c2cc(OC)c3ccccc3n2)CC1` has a Ki of 148 nM. `CCCCN1CCC(CNC(=O)c2ccc3cccc(O)c3n2)CC1` gave a Ki of 76 nM. `COc1cc(C(=O)OCCN2CCC(CO)CC2)c2ccccc2n1` was tested, and the Ki was 8 nM. For `CCCCN1CCC(COC(=O)c2cc(OC)nc3ccccc23)CC1`, the Ki was 0.62 nM. Compound `CCCCN1CCC(COC(=O)c2cc(C3CC3)nc3ccccc23)CC1` has a Ki of 0.44 nM. In the case of `COc1cc(C(=O)NCCN2CCCCC2)c2ccccc2n1`, the Ki is reported as > 1000 nM. In the case of `O=C(NCCCN1CCCCC1)c1cc(Cl)c2ccccc2n1`, the Ki is reported as > 1000 nM. In the case of `CCCCN1CCC(CNC(=O)c2cc(Cl)c3ccccc3n2)CC1`, the Ki is reported as 39 nM. Compound `CCCCN1CCC(CCC(=O)c2cc(Cl)c(N)cc2OC)CC1` has a Ki of 3.9 nM.
